Experimental data taken from article PMC4117758 (2014).

What was measured:
Assay in all cases: Job plot, absorption and fluorescence
Details in all cases: 150 mM KCl; 10 mM Tris-HCl pH 7.4, 1 mM Na2EDTA, 400 ml/l PEG 200; 5 μM total
[1] = test system: Hum21 (DNA, G4) GGGTTAGGGTTAGGGTTAGGG
[2] = test system: Hum51-M2 (DNA, G4) GGGTTAGGGTTAGGGTTAGGGTTGAGTGTAGGGTTAGGGTTAGGGTTAGGG
[3] = test system: Hum51 (DNA, G4) GGGTTAGGGTTAGGGTTAGGGTTAGGGTTAGGGTTAGGGTTAGGGTTAGGG
[4] = test system: Hum45 (DNA, G4) GGGTTAGGGTTAGGGTTAGGGTTAGGGTTAGGGTTAGGGTTAGGG
[5] = test system: Hum51-M1 (DNA, G4) GGGTTAGGGTTAGGGTTAGGGTTAGGGTTAGGGTTAGGGTTAGGGTGTGAG
[6] = test system: Hum63 (DNA, G4) GGGTTAGGGTTAGGGTTAGGGTTAGGGTTAGGGTTAGGGTTAGGGTTAGGGTTAGGGTTAGGG
[7] = test system: Hum57-M3 (DNA, G4) GGGTTAGGGTTAGGGTTAGGGTTGAGTGTGAGTGTAGGGTTAGGGTTAGGGTTAGGG
[8] = test system: Hum57-M1 (DNA, G4) GGGTTAGGGTTAGGGTTAGGGTTAGGGTTAGGGTTAGGGTTAGGGTGTGAGTGTGAG
[9] = test system: Hum69 (DNA, G4) GGGTTAGGGTTAGGGTTAGGGTTAGGGTTAGGGTTAGGGTTAGGGTTAGGGTTAGGGTTAGGGTTAGGG
[10] = test system: Hum57 (DNA, G4) GGGTTAGGGTTAGGGTTAGGGTTAGGGTTAGGGTTAGGGTTAGGGTTAGGGTTAGGG
[11] = test system: Hum57-M2 (DNA, G4) GGGTTAGGGTTAGGGTTAGGGTTGAGTGTAGGGTTAGGGTTAGGGTTAGGGTGTGAG

Measured: binding

C[N+]1(CCOc2ccc(-c3c4nc(c(-c5ccc(OCC[N+]6(C)CCCCC6)cc5)c5ccc([nH]5)c(-c5ccc(OCC[N+]6(C)CCCCC6)cc5)c5nc(c(-c6ccc(OCC[N+]7(C)CCCCC7)cc6)c6ccc3[nH]6)C=C5)C=C4)cc2)CCCCC1
yes: all assays above
